We go through three molecules from publication PMC11808539 (Bioorganic & medicinal chemistry letters, 2024).

Structures are written as SMILES.

One test deals with GSK-3. Briefly: GSK-3 inhibition, isoform not stated. The format is biochemical. The following applies: no activity defined as an IC50 >10μM.
A further test concerns broad kinase screen. The following applies: cited from earlier work.
For test [1], the system named is other kinases tested having a lysine at a position comparable to Arg141 in GSK-3β. The following applies: kinases with lysine at position comparable to Arg141; at 2 μM; cited from earlier work.
Another test relates to MAPK5/PRAK. The following applies: at 2μM; cited from earlier work.

As for `OC1(c2ccccc2)CSC(=S)N1Cc1ccccc1` (stereo not drawn) [Compound 3a], the “activity (GSK-3 inhibition, in words)” value with GSK-3 was “no activity”.
One may read the % inhibition as the percentage by which the read-out fell short of the control. For `OC1(c2ccccc2)CSC(=S)N1Cc1ccncc1` (stereo not drawn) [Compound 3c], the “kinase selectivity (in words)” value in the test with broad kinase screen was “the only kinases significantly inhibited by 3c were GSK-3β and GSK-3α”. Also, the “% inhibition” value in test [1] is given as less than 30%; with MAPK5/PRAK, 60%. For the same molecule, in the test with GSK-3, the “activity (GSK-3 inhibition, in words)” value is recorded as “excellent activity”.
In the case of `OC1(c2ccccc2)CSC(=S)N1Cc1ccccn1` (stereo not drawn) [Compound 3d], the “activity (GSK-3 inhibition, in words)” value in the test with GSK-3 is given as “no activity”.
